# Measurements as given in patent EP4574149A1, “COMPOSITION OF RAPAMYCIN, DIMETHYLSULPHOXIDE AND WATER FOR USE IN THE TREATMENT OF FATTY LIVER DISEASE” (Assistance Publique - Hôpitaux de Paris, priority 2023, dated 2025).
# Key:
# hépatocytes = test: Defatting effect of rapamycin on hepatocyte cultures (Example 2); type: cell-based; conditions: rapamycine 200nM, hepatocytes, read-out: diminution du taux de triglycérides intracellulaires par rapport au contrôle
# Procedure: (§1) La rapamycine a été évaluée sur des cultures d'hépatocytes et sur tissus hépatiques (tranches de foies permettant de garder la structure hépatique). Pour une concentration de rapamycine à 200nM, il était observé une diminution de 19% du taux de triglycérides intracellulaires par rapport au contrôle dans les hépatocytes et de 38% dans les tissus hépatiques. Ces résultats répétés plusieurs fois ont permis de confirmer la preuve de concept de l'effet de la rapamycine sur l'effet « dégraissant ».
# [1] = in DMSO (Simamora P et al., 2001); cited from earlier work
# [2] = Solubility study of rapamycin in DMSO/H2O mixtures; type: physicochemical
# Procedure: Une étude de solubilité a été réalisée sur des mélanges DMSO/H2O, de 40% à 100% (v/v) en DMSO et des concentrations en rapamycine comprises entre 0,4 et 4 mg/mL.
# L'évaluation de la solubilisation de rapamycine en fonction de différentes concentrations de DMSO est présentée au Tableau 3 ci-dessous : Tableau 3 : Evaluation de la solubilisation de rapamycine en fonction de différentes concentrations de DMSO.
# A la suite de ces résultats, une nouvelle étude a été lancée sur un intervalle plus restreint en DMSO, avec 3 niveaux de concentrations (70%; 85%; 100%) et les 3 mêmes niveaux de rapamycine (0,4; 1; 4 mg/mL) (Tableau 4). Tableau 4 : Evaluation de la solubilisation de rapamycine dans des concentrations de DMSO à 70%, 85% et 100%.
# tissus hépatiques = test: Defatting effect of rapamycin on hepatic tissues, liver slices (Example 2); type: cell-based; conditions: rapamycine 200nM, read-out: diminution du taux de triglycérides intracellulaires par rapport au contrôle
# Procedure: as §1
# foies humains = test: Perfusion circuit with steatotic human livers: intracellular triglycerides and pharmacokinetics; conditions: for diminution du taux de triglycérides intra cellulaires: steatosis > 50%
# Source text: De la même manière, l'expérience a été réalisée avec deux foies humains jugés non transplantables et utilisés à visée scientifique après autorisation de l'Agence de Biomédecine. […] L'évaluation de la viabilité de ces deux organes ont été faites selon des critères validés en pratique clinique. […] Pour ce faire, les triglycérides intra cellulaires ont été dosés.
# [3] = Perfusion circuit with pig liver: pharmacokinetics of rapamycin; type: in vitro ADME, cochon; conditions: pig liver on perfusion machine
# Procedure: Le même protocole de perfusion a été utilisé mais avec un foie animal. Celui-ci a été prélèvé chez un cochon en arrêt cardiaque puis préservé dans de la glace. Il a ensuite été mis sur machine de perfusion, initialement en hypothermie (4°C) pendant 2 heures puis à 37°C pendant 12 heures avec une phase de réchauffement intermédiaire (sub normothermie, 21°C). La rapamycine était injectée dans le circuit 2 heures après le début de la phase de normothermie. Neuf expériences ont été réalisées. L'objectif était d'avoir une étude pharmacocinétique de la rapamycine.
# [4] = Perfusion circuit without organ: rapamycin concentration in whole blood perfusate; type: in vitro ADME, humain; conditions: whole human blood perfusate at 37°C, no organ; theoretical target 180 ng/mL; 4 experiments
# Procedure: Une machine de perfusion hépatique a été utilisée avec du perfusat constitué de sang total humain maintenu à 37°C. La rapamycine a été injectée directement dans le circuit de perfusion. Des prélèvements étaient réalisés à intervalles réguliers pour doser la molécule. L'expérience a été réalisée 4 fois, l'objectif étant de valider la concentration cible théorique de 180 ng/mL définie à partir des études précédentes d'efficacité et de toxicité.
structure (smiles),measurement,setting,value
"CO[C@H]1C[C@@H]2CC[C@@H](C)[C@@](O)(O2)C(=O)C(=O)N2CCCC[C@H]2C(=O)O[C@H]([C@H](C)C[C@@H]2CC[C@@H](O)[C@H](OC)C2)CC(=O)[C@H](C)/C=C(\C)[C@@H](O)[C@@H](OC)C(=O)[C@H](C)C[C@H](C)/C=C/C=C/C=C/1C [Rapamycine, rapamycine]",inhibition at 0.2 µM,hépatocytes,19%
same,solubilité,[1],> 250 mg/mL
same,Solubilité à température ambiante,"[2]; DMSO/H2O 40 % volumique, [Rapamycine] 0,4 mg/mL",Non (aspect laiteux avec cristaux
same,Solubilité à température ambiante,"[2]; DMSO/H2O 40 % volumique, [Rapamycine] 1 mg/mL",Non (aspect laiteux avec cristaux
same,Solubilité à température ambiante,"[2]; DMSO/H2O 40 % volumique, [Rapamycine] 4 mg/mL",Non (aspect laiteux avec cristaux
same,Solubilité à température ambiante,"[2]; DMSO/H2O 60 % volumique, [Rapamycine] 0,4 mg/mL",Oui
same,Solubilité à température ambiante,"[2]; DMSO/H2O 60 % volumique, [Rapamycine] 1 mg/mL",Oui
same,Solubilité à température ambiante,"[2]; DMSO/H2O 60 % volumique, [Rapamycine] 4 mg/mL",Non (aspect laiteux avec cristaux
same,Solubilité à température ambiante,"[2]; DMSO/H2O 80 % volumique, [Rapamycine] 0,4 mg/mL",Oui
same,Solubilité à température ambiante,"[2]; DMSO/H2O 80 % volumique, [Rapamycine] 1 mg/mL",Oui
same,Solubilité à température ambiante,"[2]; DMSO/H2O 80 % volumique, [Rapamycine] 4 mg/mL",Oui
same,Solubilité à température ambiante,"[2]; DMSO/H2O 100 % volumique, [Rapamycine] 0,4 mg/mL",Oui
same,Solubilité à température ambiante,"[2]; DMSO/H2O 100 % volumique, [Rapamycine] 1 mg/mL",Oui
same,Solubilité à température ambiante,"[2]; DMSO/H2O 100 % volumique, [Rapamycine] 4 mg/mL",Oui
same,Solubilité à température ambiante,"[2]; second study (Tableau 4), DMSO/H2O 70 % volumique, [Rapamycine] 0,4 mg/mL",Oui
same,Solubilité à température ambiante,"[2]; second study (Tableau 4), DMSO/H2O 70 % volumique, [Rapamycine] 1 mg/mL",Oui
same,Solubilité à température ambiante,"[2]; second study (Tableau 4), DMSO/H2O 70 % volumique, [Rapamycine] 4 mg/mL",Oui
same,Solubilité à température ambiante,"[2]; second study (Tableau 4), DMSO/H2O 85 % volumique, [Rapamycine] 0,4 mg/mL",Oui
same,Solubilité à température ambiante,"[2]; second study (Tableau 4), DMSO/H2O 85 % volumique, [Rapamycine] 1 mg/mL",Oui
same,Solubilité à température ambiante,"[2]; second study (Tableau 4), DMSO/H2O 85 % volumique, [Rapamycine] 4 mg/mL",Oui
same,Solubilité à température ambiante,"[2]; second study (Tableau 4), DMSO/H2O 100 % volumique, [Rapamycine] 0,4 mg/mL",Oui
same,Solubilité à température ambiante,"[2]; second study (Tableau 4), DMSO/H2O 100 % volumique, [Rapamycine] 1 mg/mL",Oui
same,Solubilité à température ambiante,"[2]; second study (Tableau 4), DMSO/H2O 100 % volumique, [Rapamycine] 4 mg/mL",Oui
same,inhibition at 0.2 µM,tissus hépatiques,38%
same,diminution du taux de triglycérides intra cellulaires,"foies humains; foie N°1, 9 heures after injection of rapamycin",39%
same,diminution du taux de triglycérides intra cellulaires,foies humains; foie N°2,31%
same,pharmacocinétique,foies humains; human livers on perfusion machine,identique à celle observée lors de la perfusion des foies de cochon
same,time after injection from which rapamycin is found in bile,"[3]; bile, increases during perfusion",1 heure
same,Tmax,"[3]; whole blood and plasma, 37°C, read-out: pic de concentration (time after injection) (converted)",5 min
same,concentration moyenne de rapamycine,[4],150 ± 30 ng/mL
